Laboratory results reported in publication PMC10379611 (International Journal of Molecular Sciences, 2023).
Entries after “also recorded” stand apart in the source; their conditions may differ. Like-named read-outs stand apart in the source and are kept apart here.

Columns and labels:
OATP2B1 = biological target: T1, OATP2B1 (Homo sapiens, UniProt O94956); experiment: OATP2B1 uptake assay (pyranine) in overexpressing A431 cells; assay type: cell-based; details: for IC50: pyranine substrate, A431 cells, pH 5.5, read-out: estimated IC50, OATP2B1
T1 construct: expressed in transfected cells; host or cells: A431
T1 sequence (O94956 1-709): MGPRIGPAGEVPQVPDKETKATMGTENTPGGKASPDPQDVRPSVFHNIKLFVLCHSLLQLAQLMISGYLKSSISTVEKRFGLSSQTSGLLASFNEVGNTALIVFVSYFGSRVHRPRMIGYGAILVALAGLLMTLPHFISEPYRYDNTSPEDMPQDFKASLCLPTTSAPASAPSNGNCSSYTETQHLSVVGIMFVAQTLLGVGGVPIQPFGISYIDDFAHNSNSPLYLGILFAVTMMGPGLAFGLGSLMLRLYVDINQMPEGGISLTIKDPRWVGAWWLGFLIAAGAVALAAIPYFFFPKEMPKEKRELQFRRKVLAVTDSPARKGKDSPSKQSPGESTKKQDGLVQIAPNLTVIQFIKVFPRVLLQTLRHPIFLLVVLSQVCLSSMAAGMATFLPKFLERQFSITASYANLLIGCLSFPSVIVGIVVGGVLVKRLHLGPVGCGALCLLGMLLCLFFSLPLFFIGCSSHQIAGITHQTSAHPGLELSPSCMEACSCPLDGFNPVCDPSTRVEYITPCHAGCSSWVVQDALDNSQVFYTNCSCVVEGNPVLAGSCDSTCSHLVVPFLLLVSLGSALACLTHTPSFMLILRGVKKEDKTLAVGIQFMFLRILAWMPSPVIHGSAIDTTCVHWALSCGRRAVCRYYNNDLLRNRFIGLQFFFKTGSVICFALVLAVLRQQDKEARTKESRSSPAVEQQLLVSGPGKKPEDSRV
Protocol: To study the function of OATPs, we used A431 cells overexpressing OATP1A2, OATP1B1, OATP1B3, or OATP2B1 and mock-transfected A431 cells, generated as previously described, as controls. […] Briefly, OATP-overexpressing A431 cells and mock-transfected A431 cells were seeded on 96-well plates (8 × 10^4 cells/well).

OATP1B3 = biological target: T2, OATP1B3 (Homo sapiens, UniProt Q9NPD5); experiment: OATP1B3 uptake assay (pyranine) in overexpressing A431 cells
T2 sequence (Q9NPD5 1-702): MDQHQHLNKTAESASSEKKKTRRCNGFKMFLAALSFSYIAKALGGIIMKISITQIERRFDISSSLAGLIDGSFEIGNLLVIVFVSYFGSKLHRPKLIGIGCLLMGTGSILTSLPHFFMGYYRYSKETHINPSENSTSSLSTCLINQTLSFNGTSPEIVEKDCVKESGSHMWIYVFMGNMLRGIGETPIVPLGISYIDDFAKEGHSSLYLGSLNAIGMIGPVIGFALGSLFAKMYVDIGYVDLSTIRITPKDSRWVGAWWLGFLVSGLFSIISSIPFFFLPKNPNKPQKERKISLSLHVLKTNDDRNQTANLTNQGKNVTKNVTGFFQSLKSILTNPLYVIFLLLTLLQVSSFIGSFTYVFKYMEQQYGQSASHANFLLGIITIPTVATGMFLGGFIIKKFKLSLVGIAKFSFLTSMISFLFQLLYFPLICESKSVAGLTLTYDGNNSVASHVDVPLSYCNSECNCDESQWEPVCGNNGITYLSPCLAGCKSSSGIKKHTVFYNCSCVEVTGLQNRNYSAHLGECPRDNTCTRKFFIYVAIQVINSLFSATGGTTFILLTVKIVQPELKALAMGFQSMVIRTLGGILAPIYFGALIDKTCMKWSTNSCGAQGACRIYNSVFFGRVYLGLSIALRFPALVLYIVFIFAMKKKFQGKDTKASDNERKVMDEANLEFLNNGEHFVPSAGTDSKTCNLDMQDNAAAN

ABCB1 = ABCB1 (Homo sapiens, UniProt P08183); experiment: ABCB1 vesicular transport (NMQ), HEK293 inverted membrane vesicles; details: for effect on ABCB1 NMQ vesicular transport: up to 200 μM
OATP1B1 = biological target: T3, OATP1B1 (Homo sapiens, UniProt Q9Y6L6); experiment: OATP1B1 uptake assay (pyranine) in overexpressing A431 cells
T3 sequence (Q9Y6L6 1-691): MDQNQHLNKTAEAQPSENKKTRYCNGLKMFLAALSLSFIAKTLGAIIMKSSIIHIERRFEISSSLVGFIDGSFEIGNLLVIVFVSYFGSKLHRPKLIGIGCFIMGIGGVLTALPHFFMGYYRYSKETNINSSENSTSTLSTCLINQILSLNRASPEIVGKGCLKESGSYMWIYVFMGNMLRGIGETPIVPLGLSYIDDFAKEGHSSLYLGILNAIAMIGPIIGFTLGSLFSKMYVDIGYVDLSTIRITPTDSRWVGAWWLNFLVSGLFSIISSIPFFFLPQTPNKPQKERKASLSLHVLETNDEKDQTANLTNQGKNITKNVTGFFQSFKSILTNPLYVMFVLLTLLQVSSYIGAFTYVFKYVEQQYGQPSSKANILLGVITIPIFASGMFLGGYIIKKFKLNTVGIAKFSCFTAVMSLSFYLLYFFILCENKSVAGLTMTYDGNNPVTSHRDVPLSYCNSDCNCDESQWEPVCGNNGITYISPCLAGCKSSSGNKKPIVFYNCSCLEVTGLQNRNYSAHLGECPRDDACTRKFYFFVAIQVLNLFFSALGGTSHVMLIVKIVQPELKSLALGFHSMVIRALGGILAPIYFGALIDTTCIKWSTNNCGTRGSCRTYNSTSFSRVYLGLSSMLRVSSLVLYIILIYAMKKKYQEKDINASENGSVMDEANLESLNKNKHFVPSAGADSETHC

Chain of ABCB1 (P08183 whole entry): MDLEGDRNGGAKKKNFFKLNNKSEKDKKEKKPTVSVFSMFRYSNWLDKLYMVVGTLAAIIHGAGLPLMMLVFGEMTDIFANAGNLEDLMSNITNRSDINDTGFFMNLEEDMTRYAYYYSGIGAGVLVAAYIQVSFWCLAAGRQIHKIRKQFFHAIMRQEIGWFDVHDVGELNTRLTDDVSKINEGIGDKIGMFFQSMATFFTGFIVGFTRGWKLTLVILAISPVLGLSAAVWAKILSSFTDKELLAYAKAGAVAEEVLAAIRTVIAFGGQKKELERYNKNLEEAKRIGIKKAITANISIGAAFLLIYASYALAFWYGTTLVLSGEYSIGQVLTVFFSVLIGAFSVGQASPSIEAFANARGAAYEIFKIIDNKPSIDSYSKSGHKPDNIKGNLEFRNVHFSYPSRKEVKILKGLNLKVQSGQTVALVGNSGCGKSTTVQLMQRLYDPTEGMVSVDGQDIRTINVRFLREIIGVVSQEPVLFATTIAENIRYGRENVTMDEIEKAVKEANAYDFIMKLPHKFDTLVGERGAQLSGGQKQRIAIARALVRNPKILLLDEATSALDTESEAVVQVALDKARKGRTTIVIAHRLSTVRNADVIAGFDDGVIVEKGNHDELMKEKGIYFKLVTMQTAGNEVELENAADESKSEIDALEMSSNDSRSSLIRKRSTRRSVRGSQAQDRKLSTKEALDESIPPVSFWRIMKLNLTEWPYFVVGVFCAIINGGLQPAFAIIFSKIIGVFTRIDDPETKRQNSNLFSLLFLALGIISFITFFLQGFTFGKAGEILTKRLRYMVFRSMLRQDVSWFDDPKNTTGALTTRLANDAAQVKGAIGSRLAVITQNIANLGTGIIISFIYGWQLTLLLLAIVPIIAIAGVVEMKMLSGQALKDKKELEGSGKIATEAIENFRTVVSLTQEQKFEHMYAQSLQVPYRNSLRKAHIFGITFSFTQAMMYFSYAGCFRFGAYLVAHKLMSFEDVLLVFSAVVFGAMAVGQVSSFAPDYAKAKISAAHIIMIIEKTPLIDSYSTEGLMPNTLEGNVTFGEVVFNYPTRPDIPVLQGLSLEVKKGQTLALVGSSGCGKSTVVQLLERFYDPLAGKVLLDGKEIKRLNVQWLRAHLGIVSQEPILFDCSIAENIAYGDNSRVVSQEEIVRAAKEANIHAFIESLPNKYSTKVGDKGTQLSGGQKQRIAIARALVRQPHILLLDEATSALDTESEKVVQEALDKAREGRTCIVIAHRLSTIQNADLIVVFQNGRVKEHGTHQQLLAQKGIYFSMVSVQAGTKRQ

SMILES	inhibition of OATP2B1 by Nirmatrelvir alone (OATP2B1; at 20 μM)	inhibition of OATP1B3 by Nirmatrelvir alone (OATP1B3; at 20 μM)	additional effect of Nirmatrelvir on ABCB1 inhibition by Ritonavir (ABCB1; NIR in combination with RIT)	effect on ABCB1 NMQ vesicular transport (ABCB1)	inhibition of OATP1B1 by Nirmatrelvir alone (OATP1B1; at 20 μM)	maximum inhibition of OATP2B1 (OATP2B1; at 200 μM, pyranine)	IC50 (OATP2B1) [µM]	maximum inhibition of OATP1B3 (OATP1B3; at 200 μM, pyranine)	IC50 (OATP1B3; read-out: estimated IC50, OATP1B3, pyranine substrate, A431 cells) [µM]	maximum inhibition of OATP1B1 (OATP1B1; at 200 μM, pyranine)	IC50 (OATP1B1; read-out: estimated IC50, OATP1B1, pyranine substrate, A431 cells) [µM]	inhibition at 10 min, 200 µM (OATP2B1; human, A431 cells overexpressing OATP2B1, pH 5.5, probe pyranine (20 μM), at 200 μM, pyranine, read-out: maximum inhibition of OATP2B1) [%]	IC50 (OATP1B3) [µM]	inhibition at 10 min, 200 µM (OATP1B3; human, A431 cells overexpressing OATP1B3, pH 7.4, probe pyranine (20 μM)) [%]	IC50 (OATP1B1) [µM]	inhibition at 10 min, 200 µM (OATP1B1; human, A431 cells overexpressing OATP1B1, pH 7.4, probe pyranine (20 μM)) [%]
CC(C)(C)[C@H](NC(=O)C(F)(F)F)C(=O)N1C[C@H]2[C@@H]([C@H]1C(=O)N[C@H](C#N)C[C@@H]1CCNC1=O)C2(C)C [Nirmatrelvir]	only a minor inhibitory effect	only a minor inhibitory effect	no additional effect	moderate inhibitory effect; also recorded: only a weak inhibitory effect	only a minor inhibitory effect	–	–	–	–	–	–	–	–	–	–	–
O=c1nc(NO)ccn1[C@@H]1O[C@H](CO)[C@@H](O)[C@H]1O [EIDD-1931]	–	–	–	neither the function of ABCB1 nor that of ABCG2 was altered	–	20–40%	> 200	20–40%	> 200	20–40%	> 200	–	–	–	–	–
CC(C)C(=O)OC[C@H]1O[C@@H](n2ccc(NO)nc2=O)[C@H](O)[C@@H]1O [EIDD-2801, Molnupiravir]	–	–	–	neither the function of ABCB1 nor that of ABCG2 was altered	–	–	> 200	–	–	–	–	20 to 40	> 200	20 to 40	> 200	20 to 40
